PubChem BioAssay (NCI)
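48-hour exposure; five concentrations; linearly interpolated endpoints. GI50 marks 50% less growth. The concentration for full growth arrest is given as TGI.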

What was measured:
Test in all cases: NCI-60 cell line screen, 48 h
[1] = test system: 786-0 renal
[2] = test system: A498 renal
[3] = test system: A549 NSCLC
[4] = test system: ACHN renal
[5] = test system: BT-549 breast
[6] = test system: CAKI-1 renal
[7] = test system: CCRF-CEM leukemia
[8] = test system: COLO 205 colon
[9] = test system: DU-145 prostate
[10] = test system: EKVX NSCLC
[11] = test system: HCC-2998 colon
[12] = test system: HCT-116 colon
[13] = test system: HCT-15 colon
[14] = test system: HL-60(TB) leukemia
[15] = test system: HOP-62 NSCLC
[16] = test system: HOP-92 NSCLC
[17] = test system: HS 578T breast
[18] = test system: HT29 colon
[19] = test system: IGROV1 ovarian
[20] = test system: K-562 leukemia
[21] = test system: KM12 colon
[22] = test system: LOX IMVI melanoma
[23] = test system: M14 melanoma
[24] = test system: MALME-3M melanoma
[25] = test system: MCF7 breast
[26] = test system: MDA-MB-231 breast
[27] = test system: MDA-MB-435
[28] = test system: MOLT-4 leukemia
[29] = test system: NCI-H226 lung
[30] = test system: NCI-H23 lung
[31] = test system: NCI-H460 lung
[32] = test system: NCI-H522 lung
[33] = test system: NCI/ADR-RES ovarian
[34] = test system: OVCAR-3 ovarian
[35] = test system: OVCAR-4 ovarian
[36] = test system: OVCAR-5 ovarian
[37] = test system: OVCAR-8 ovarian
[38] = test system: PC-3 prostate
[39] = test system: RPMI-8226 leukemia
[40] = test system: RXF 393 renal
[41] = test system: SF-268 CNS
[42] = test system: SF-295 CNS
[43] = test system: SF-539 CNS
[44] = test system: SK-MEL-2 melanoma
[45] = test system: SK-MEL-28 melanoma
[46] = test system: SK-MEL-5 melanoma
[47] = test system: SK-OV-3 ovarian
[48] = test system: SN12C renal
[49] = test system: SNB-19 CNS
[50] = test system: SNB-75 CNS
[51] = test system: SR leukemia
[52] = test system: SW-620 colon
[53] = test system: T-47D breast
[54] = test system: TK-10 renal
[55] = test system: U251 CNS
[56] = test system: UACC-257 melanoma
[57] = test system: UACC-62 melanoma
[58] = test system: UO-31 renal

With `O=c1oc2ccc(I)cc2c(=O)n1-c1ccc(F)cc1F` the GI50 [1] was 3030 nM, the TGI [1] was 9670 nM and the GI50 [2] was 1190 nM. The TGI [2] was 2920 nM, the GI50 [3] was 2930 nM and the TGI [3] was 19800 nM. The GI50 [4] was 2520 nM, the TGI [4] was 8420 nM and the GI50 [5] was 1910 nM. It also gave a TGI [5] of 4980 nM, a GI50 [6] of 1800 nM and a TGI [6] of 6600 nM. For the same compound, the GI50 [7] was 3240 nM, the TGI [7] was 19200 nM and the GI50 [8] was 3390 nM. The TGI [8] was 13100 nM, the GI50 [9] was 3570 nM and the TGI [9] was 58500 nM. For the same compound, the GI50 [10] was 1980 nM, the TGI [10] was 8100 nM and the GI50 [11] was 3230 nM. It also gave a TGI [11] of 13900 nM, a GI50 [12] of 2140 nM and a TGI [12] of 5200 nM. It also gave a GI50 [13] of 2710 nM, a TGI [13] of 11400 nM and a GI50 [14] of 2040 nM. The TGI [14] was 5120 nM, the GI50 [15] was 2160 nM and the TGI [15] was 6090 nM. It also gave a GI50 [16] of 700 nM, a TGI [16] of 3780 nM and a GI50 [17] of 2040 nM. It also gave a TGI [17] of 6550 nM, a GI50 [18] of 3400 nM and a TGI [18] of 15400 nM. It also gave a GI50 [19] of 2070 nM, a TGI [19] of 33200 nM and a GI50 [20] of 2560 nM. It also gave a TGI [20] greater than 100000 nM, a GI50 [21] of 2510 nM and a TGI [21] of 6800 nM. The GI50 [22] was 2510 nM, the TGI [22] was 10900 nM and the GI50 [23] was 1710 nM. The TGI [23] was 5880 nM, the GI50 [24] was 1940 nM and the TGI [24] was 5890 nM. For the same compound, the GI50 [25] was 2380 nM, the TGI [25] was 49100 nM and the GI50 [26] was 1890 nM. It also gave a TGI [26] of 6010 nM, a GI50 [27] of 2870 nM and a TGI [27] of 9180 nM. It also gave a GI50 [28] of 2390 nM, a TGI [28] of 6880 nM and a GI50 [29] of 2410 nM. For the same compound, the TGI [29] was 12700 nM, the GI50 [30] was 2140 nM and the TGI [30] was 7940 nM. The GI50 [31] was 2800 nM, the TGI [31] was 12800 nM and the GI50 [32] was 2650 nM. It also gave a TGI [32] of 10200 nM, a GI50 [33] of 2640 nM and a TGI [33] of 13400 nM. For the same compound, the GI50 [34] was 2670 nM, the TGI [34] was 13000 nM and the GI50 [35] was 2070 nM. The TGI [35] was 8970 nM, the GI50 [36] was 3960 nM and the TGI [36] was greater than 100000 nM. For the same compound, the GI50 [37] was 2860 nM, the TGI [37] was 13200 nM and the GI50 [38] was 2240 nM. The TGI [38] was 6940 nM, the GI50 [39] was 1490 nM and the TGI [39] was 4830 nM. The GI50 [40] was 2440 nM, the TGI [40] was 6090 nM and the GI50 [41] was 2860 nM. For the same compound, the TGI [41] was 27100 nM, the GI50 [42] was 1870 nM and the TGI [42] was 3740 nM. It also gave a GI50 [43] of 2790 nM, a TGI [43] of 9510 nM and a GI50 [44] of 2150 nM. It also gave a TGI [44] of 5730 nM, a GI50 [45] of 1760 nM and a TGI [45] of 6250 nM. The GI50 [46] was 1530 nM, the TGI [46] was 3030 nM and the GI50 [47] was 1160 nM. The TGI [47] was 4170 nM, the GI50 [48] was 2360 nM and the TGI [48] was 8910 nM. The GI50 [49] was 2630 nM, the TGI [49] was greater than 100000 nM and the GI50 [50] was 1260 nM. It also gave a TGI [50] of 3960 nM, a GI50 [51] of 3020 nM and a TGI [51] greater than 100000 nM. It also gave a GI50 [52] of 2730 nM, a TGI [52] of 11600 nM and a GI50 [53] of 1990 nM. The TGI [53] was 6000 nM, the GI50 [54] was 4430 nM and the TGI [54] was 10600 nM. It also gave a GI50 [55] of 2640 nM, a TGI [55] of 19000 nM and a GI50 [56] of 2010 nM. For the same compound, the TGI [56] was 6120 nM, the GI50 [57] was 1310 nM and the TGI [57] was 4190 nM. For the same compound, the GI50 [58] was 1480 nM and the TGI [58] was 5710 nM.

With `COc1ccc(C=Nc2c(C(=O)Nc3cccc(Cl)c3C)sc3nc(C)c(C(=O)/C=C/c4ccc(OC)cc4)cc23)cc1` the GI50 [1] was 656 nM, the TGI [1] was greater than 30000 nM and the GI50 [2] was 196 nM. It also gave a TGI [2] of 2490 nM, a GI50 [3] of 1610 nM and a TGI [3] greater than 50000 nM. The GI50 [4] was 425 nM, the TGI [4] was greater than 50000 nM and the GI50 [5] was 787 nM. The TGI [5] was greater than 38500 nM, the GI50 [6] was 652 nM and the TGI [6] was greater than 50000 nM. It also gave a GI50 [7] of 819 nM, a TGI [7] greater than 50000 nM and a GI50 [8] of 1820 nM. It also gave a TGI [8] of 23800 nM, a GI50 [9] of 638 nM and a TGI [9] of 14600 nM. For the same compound, the GI50 [10] was 2240 nM, the TGI [10] was greater than 50000 nM and the GI50 [11] was 9890 nM. It also gave a TGI [11] greater than 50000 nM, a GI50 [12] of 362 nM and a TGI [12] greater than 50000 nM. It also gave a GI50 [13] of 382 nM, a TGI [13] greater than 50000 nM and a GI50 [14] of 1270 nM. It also gave a TGI [14] greater than 22000 nM, a GI50 [15] of 1050 nM and a TGI [15] greater than 27500 nM. It also gave a GI50 [16] of 590 nM, a TGI [16] of 7120 nM and a GI50 [17] of 458 nM. It also gave a TGI [17] of 7670 nM, a GI50 [18] of 306 nM and a TGI [18] greater than 50000 nM. For the same compound, the GI50 [19] was 1320 nM, the TGI [19] was greater than 50000 nM and the GI50 [20] was 259 nM. For the same compound, the TGI [20] was greater than 50000 nM, the GI50 [21] was 894 nM and the TGI [21] was greater than 43900 nM. It also gave a GI50 [22] of 666 nM, a TGI [22] greater than 50000 nM and a GI50 [23] of 201 nM. It also gave a TGI [23] of 1570 nM, a GI50 [24] of 599 nM and a TGI [24] greater than 50000 nM. The GI50 [25] was 293 nM, the TGI [25] was greater than 50000 nM and the GI50 [26] was 383 nM. It also gave a TGI [26] of 2260 nM, a GI50 [27] of 103 nM and a TGI [27] of 227 nM. The GI50 [28] was 3680 nM, the TGI [28] was greater than 50000 nM and the GI50 [29] was 621 nM. It also gave a TGI [29] of 11700 nM, a GI50 [30] of 917 nM and a TGI [30] of 17100 nM. For the same compound, the GI50 [31] was 1930 nM, the TGI [31] was greater than 29700 nM and the GI50 [32] was 157 nM. For the same compound, the GI50 [33] was 197 nM, the TGI [33] was 1170 nM and the GI50 [34] was 267 nM. The TGI [34] was 5950 nM, the TGI [35] was greater than 50000 nM and the GI50 [36] was 2040 nM. The TGI [36] was greater than 50000 nM, the GI50 [37] was 1380 nM and the TGI [37] was greater than 50000 nM. The GI50 [38] was 281 nM, the TGI [38] was greater than 50000 nM and the GI50 [39] was 1500 nM. For the same compound, the TGI [39] was greater than 50000 nM, the GI50 [40] was 163 nM and the TGI [40] was 906 nM. The GI50 [41] was 1600 nM, the TGI [41] was greater than 50000 nM and the GI50 [42] was 362 nM. The TGI [42] was 8430 nM, the GI50 [43] was 449 nM and the TGI [43] was 2410 nM. The GI50 [44] was 980 nM, the TGI [44] was 36100 nM and the GI50 [45] was 288 nM. It also gave a TGI [45] greater than 50000 nM, a GI50 [46] of 856 nM and a TGI [46] greater than 50000 nM. The GI50 [47] was 958 nM, the TGI [47] was greater than 50000 nM and the GI50 [48] was 853 nM. For the same compound, the TGI [48] was greater than 50000 nM, the GI50 [49] was 1580 nM and the TGI [49] was 28300 nM. The GI50 [50] was 191 nM, the TGI [50] was 1880 nM and the GI50 [51] was 421 nM. It also gave a TGI [51] greater than 50000 nM, a GI50 [52] of 412 nM and a TGI [52] greater than 50000 nM. For the same compound, the GI50 [53] was 1280 nM, the TGI [53] was greater than 50000 nM and the GI50 [54] was 4120 nM. For the same compound, the TGI [54] was greater than 50000 nM, the GI50 [55] was 1560 nM and the TGI [55] was 18400 nM. For the same compound, the GI50 [56] was 2880 nM, the TGI [56] was greater than 50000 nM and the GI50 [57] was 312 nM. It also gave a TGI [57] greater than 23100 nM, a GI50 [58] of 2040 nM and a TGI [58] greater than 50000 nM.
